Tests used:
Experiment in all cases: KINOMEscan competition binding
Conditions in all cases: compound 10.0 µM
ACVR2B (human) = ACVR2B (human) (UniProt Q13705)
AURKB (human) = AURKB (human) (UniProt Q96GD4)
BMPR1A (human) = BMPR1A (human) (UniProt P36894)
CDKL2 (human) = CDKL2 (human) (UniProt Q92772)
CHEK1 (human) = CHEK1 (human) (UniProt O14757)
CIT (human) = CIT (human) (UniProt O14578)
CSNK2A1 (human) = CSNK2A1 (human) (UniProt P68400)
CaMK1 (human) = CaMK1 (human) (UniProt Q14012)
DCLK2 (human) = DCLK2 (human) (UniProt Q8N568)
EPHB2 (human) = EPHB2 (human) (UniProt P29323)
ERBB4 (human) = ERBB4 (human) (UniProt Q15303)
FLT3 (human) = FLT3 (human) (UniProt P36888)
FRK (human) = FRK (human) (UniProt P42685)
LATS1 (human) = LATS1 (human) (UniProt O95835)
LATS2 (human) = LATS2 (human) (UniProt Q9NRM7)
MAP3K5 (human) = MAP3K5 (human) (UniProt Q99683)
MAP4K4 (human) = MAP4K4 (human) (UniProt O95819)
MAPKAPK5 (human) = MAPKAPK5 (human) (UniProt Q8IW41)
MYLK (human) = MYLK (human) (UniProt Q15746)
PDGFRA (human) = PDGFRA (human) (UniProt P16234)
PIM2 (human) = PIM2 (human) (UniProt Q9P1W9)
PKN2 (human) = PKN2 (human) (UniProt Q16513)
PLK3 (human) = PLK3 (human) (UniProt Q9H4B4)
PRKAA1 (human) = PRKAA1 (human) (UniProt Q13131)
RPS6KA6 KD2 (human) = RPS6KA6 KD2 (human) (UniProt Q9UK32)
SGK110 (human) = SGK110 (human) (UniProt P0C264)
SRMS (human) = SRMS (human) (UniProt Q9H3Y6)
SRPK3 (human) = SRPK3 (human) (UniProt Q9UPE1)
STK17B (human) = STK17B (human) (UniProt O94768)
STK33 (human) = STK33 (human) (UniProt Q9BYT3)
SYK (human) = SYK (human) (UniProt P43405)
TGFBR2 (human) = TGFBR2 (human) (UniProt P37173)
TTK (human) = TTK (human) (UniProt P33981)
[1] = biological target: TYK2 JH2 pseudokinase (human) (UniProt P29597)
CSNK1D (human) = CSNK1D (human) (UniProt P48730)

PIM2 (human), sequence (Q9P1W9 whole entry, looked up): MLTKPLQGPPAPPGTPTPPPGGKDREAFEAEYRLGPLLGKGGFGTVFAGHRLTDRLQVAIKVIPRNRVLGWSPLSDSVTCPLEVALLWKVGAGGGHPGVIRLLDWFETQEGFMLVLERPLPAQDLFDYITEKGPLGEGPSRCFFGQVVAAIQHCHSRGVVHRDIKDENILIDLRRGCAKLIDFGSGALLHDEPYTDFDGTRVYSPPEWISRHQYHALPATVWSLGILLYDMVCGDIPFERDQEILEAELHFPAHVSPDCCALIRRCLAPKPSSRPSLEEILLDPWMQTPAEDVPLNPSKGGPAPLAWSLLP
STK33 (human), sequence (Q9BYT3 whole entry, looked up): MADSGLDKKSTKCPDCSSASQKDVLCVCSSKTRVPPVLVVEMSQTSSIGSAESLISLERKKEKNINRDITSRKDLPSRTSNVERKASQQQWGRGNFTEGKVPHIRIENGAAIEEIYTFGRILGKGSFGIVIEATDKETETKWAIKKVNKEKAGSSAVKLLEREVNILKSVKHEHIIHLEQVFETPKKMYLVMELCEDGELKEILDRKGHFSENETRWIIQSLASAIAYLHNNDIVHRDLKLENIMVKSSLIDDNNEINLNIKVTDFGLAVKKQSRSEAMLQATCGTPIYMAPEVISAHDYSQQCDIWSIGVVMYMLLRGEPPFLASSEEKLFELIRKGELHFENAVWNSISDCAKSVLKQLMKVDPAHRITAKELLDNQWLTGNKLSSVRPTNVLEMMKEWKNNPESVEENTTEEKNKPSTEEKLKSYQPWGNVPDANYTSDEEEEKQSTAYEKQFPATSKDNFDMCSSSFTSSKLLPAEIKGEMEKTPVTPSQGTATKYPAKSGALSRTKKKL
TGFBR2 (human), sequence (P37173 whole entry, looked up): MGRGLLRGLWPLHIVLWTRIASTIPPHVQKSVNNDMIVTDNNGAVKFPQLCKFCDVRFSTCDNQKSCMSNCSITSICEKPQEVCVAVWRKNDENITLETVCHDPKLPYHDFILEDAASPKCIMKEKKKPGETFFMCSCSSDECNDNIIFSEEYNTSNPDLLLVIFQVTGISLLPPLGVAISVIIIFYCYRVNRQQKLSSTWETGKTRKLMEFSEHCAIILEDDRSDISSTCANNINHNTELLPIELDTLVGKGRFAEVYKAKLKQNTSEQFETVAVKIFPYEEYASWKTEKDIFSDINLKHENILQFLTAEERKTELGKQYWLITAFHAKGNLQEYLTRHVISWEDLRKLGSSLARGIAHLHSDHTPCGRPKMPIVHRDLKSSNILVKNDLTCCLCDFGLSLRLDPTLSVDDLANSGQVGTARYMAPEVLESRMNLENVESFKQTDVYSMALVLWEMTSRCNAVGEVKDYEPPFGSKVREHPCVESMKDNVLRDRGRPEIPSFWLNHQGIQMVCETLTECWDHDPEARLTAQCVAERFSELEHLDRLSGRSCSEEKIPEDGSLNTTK
SGK110 (human), sequence (P0C264 whole entry, looked up): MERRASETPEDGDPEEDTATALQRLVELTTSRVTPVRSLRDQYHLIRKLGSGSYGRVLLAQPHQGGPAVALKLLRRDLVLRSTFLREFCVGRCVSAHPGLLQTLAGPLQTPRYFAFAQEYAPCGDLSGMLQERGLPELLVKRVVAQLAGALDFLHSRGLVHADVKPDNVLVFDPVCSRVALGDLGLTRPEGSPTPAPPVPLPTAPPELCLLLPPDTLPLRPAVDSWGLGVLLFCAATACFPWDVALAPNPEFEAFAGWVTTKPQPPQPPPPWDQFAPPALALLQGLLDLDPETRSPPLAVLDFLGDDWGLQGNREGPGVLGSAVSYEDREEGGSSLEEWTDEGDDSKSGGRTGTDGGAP
STK17B (human), sequence (O94768 whole entry, looked up): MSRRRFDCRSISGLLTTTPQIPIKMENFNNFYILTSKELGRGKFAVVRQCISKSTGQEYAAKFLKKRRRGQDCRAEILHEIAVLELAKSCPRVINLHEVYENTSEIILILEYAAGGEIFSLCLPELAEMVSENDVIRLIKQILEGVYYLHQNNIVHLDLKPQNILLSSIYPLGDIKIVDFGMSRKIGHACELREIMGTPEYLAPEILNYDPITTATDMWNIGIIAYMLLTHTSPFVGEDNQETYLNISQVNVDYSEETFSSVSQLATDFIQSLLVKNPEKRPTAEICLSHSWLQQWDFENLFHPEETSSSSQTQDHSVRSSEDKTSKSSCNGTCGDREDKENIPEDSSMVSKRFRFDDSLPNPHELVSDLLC
MAPKAPK5 (human), sequence (Q8IW41 whole entry, looked up): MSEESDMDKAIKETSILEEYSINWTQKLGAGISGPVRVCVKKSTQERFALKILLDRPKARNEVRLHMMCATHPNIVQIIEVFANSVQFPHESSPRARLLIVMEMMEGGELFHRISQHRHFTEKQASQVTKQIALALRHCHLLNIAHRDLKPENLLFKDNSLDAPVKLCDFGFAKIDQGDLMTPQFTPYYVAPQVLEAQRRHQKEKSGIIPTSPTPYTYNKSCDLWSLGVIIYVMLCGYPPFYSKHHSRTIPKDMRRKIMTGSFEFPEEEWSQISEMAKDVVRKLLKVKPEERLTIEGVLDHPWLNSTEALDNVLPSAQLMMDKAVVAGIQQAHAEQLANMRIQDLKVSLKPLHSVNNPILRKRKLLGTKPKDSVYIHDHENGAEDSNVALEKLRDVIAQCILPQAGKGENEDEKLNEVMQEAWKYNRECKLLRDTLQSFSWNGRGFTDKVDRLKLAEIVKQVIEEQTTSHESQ
MYLK (human), sequence (Q15746 whole entry, looked up): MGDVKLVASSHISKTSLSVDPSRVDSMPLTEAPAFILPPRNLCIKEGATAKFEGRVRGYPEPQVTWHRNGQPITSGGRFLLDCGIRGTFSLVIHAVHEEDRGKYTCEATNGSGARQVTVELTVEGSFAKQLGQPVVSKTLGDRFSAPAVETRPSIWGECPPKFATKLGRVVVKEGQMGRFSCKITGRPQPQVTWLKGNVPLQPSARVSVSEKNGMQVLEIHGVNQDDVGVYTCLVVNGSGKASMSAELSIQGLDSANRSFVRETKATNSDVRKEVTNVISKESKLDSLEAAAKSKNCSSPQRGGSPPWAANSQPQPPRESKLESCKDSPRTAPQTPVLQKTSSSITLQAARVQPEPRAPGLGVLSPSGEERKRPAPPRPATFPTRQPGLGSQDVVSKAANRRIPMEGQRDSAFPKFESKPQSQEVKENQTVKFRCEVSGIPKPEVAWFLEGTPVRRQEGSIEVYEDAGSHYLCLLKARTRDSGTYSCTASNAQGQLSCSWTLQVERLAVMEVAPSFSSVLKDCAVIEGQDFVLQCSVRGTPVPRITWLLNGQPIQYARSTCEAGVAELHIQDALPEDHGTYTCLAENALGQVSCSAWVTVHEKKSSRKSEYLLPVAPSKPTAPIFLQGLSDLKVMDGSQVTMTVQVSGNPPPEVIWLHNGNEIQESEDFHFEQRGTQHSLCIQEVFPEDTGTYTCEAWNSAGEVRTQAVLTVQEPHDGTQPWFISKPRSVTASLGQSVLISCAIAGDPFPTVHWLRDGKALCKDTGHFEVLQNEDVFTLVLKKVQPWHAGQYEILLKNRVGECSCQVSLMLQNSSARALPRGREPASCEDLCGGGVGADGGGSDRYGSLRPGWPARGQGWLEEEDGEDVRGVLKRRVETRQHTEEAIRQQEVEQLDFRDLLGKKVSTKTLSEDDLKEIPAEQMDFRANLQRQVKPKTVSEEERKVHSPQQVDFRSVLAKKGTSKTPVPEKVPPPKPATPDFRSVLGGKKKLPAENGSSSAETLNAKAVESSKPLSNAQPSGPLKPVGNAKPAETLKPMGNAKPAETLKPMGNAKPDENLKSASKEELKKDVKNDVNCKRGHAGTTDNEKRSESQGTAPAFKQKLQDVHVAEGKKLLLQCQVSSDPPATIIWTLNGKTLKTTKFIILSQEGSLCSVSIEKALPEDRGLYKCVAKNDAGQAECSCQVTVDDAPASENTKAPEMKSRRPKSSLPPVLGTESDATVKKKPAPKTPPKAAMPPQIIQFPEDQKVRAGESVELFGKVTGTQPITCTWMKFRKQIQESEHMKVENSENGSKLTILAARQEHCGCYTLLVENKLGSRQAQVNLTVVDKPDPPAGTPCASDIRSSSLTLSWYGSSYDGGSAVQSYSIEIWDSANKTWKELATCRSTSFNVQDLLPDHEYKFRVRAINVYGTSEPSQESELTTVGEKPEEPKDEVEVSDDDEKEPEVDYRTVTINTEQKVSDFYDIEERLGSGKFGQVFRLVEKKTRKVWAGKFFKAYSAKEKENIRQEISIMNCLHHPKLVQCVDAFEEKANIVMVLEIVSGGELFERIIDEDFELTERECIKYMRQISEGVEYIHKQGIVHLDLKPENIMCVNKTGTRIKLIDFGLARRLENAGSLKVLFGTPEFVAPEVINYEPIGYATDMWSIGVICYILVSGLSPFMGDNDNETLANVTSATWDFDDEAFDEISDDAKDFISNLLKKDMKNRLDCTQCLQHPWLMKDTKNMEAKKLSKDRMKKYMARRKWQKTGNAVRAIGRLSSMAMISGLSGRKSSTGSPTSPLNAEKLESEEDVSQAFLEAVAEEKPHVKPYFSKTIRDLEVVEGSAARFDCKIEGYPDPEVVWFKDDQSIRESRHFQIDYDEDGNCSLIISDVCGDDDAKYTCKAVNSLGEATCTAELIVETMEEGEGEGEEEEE
AURKB (human), sequence (Q96GD4 whole entry, looked up): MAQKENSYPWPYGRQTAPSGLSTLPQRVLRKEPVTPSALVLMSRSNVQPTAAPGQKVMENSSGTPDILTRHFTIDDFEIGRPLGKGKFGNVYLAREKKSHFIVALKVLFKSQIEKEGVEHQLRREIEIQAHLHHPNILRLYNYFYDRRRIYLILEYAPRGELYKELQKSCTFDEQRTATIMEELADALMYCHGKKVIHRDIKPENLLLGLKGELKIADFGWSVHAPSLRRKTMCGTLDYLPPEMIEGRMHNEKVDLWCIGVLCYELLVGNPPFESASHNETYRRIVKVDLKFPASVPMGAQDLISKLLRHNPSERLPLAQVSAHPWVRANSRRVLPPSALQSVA

Row | kinase still bound, per cent of control (ACVR2B (human)) [%] | kinase still bound, per cent of control (AURKB (human)) [%] | kinase still bound, per cent of control (CHEK1 (human)) [%] | kinase still bound, per cent of control (CIT (human)) [%] | kinase still bound, per cent of control (CSNK2A1 (human)) [%] | kinase still bound, per cent of control (CaMK1 (human)) [%] | kinase still bound, per cent of control (DCLK2 (human)) [%] | kinase still bound, per cent of control (EPHB2 (human)) [%] | kinase still bound, per cent of control (ERBB4 (human)) [%] | kinase still bound, per cent of control (FLT3 (human)) [%] | kinase still bound, per cent of control (FRK (human)) [%] | kinase still bound, per cent of control (LATS1 (human)) [%] | kinase still bound, per cent of control (LATS2 (human)) [%] | kinase still bound, per cent of control (MAP3K5 (human)) [%] | kinase still bound, per cent of control (MAP4K4 (human)) [%] | kinase still bound, per cent of control (MAPKAPK5 (human)) [%] | kinase still bound, per cent of control (MYLK (human)) [%] | kinase still bound, per cent of control (PDGFRA (human)) [%] | kinase still bound, per cent of control (PIM2 (human)) [%] | kinase still bound, per cent of control (PKN2 (human)) [%] | SMILES | further results
1 | 100 | 0.7 | 100 | 100 | 4.4 | 100 | 100 | 100 | 100 | 2.4 | 33 | 100 | 100 | 100 | 31 | 100 | 100 | 100 | 100 | 5.4 | CNC(=O)c1ccc(Nc2cc(Nc3ccccc3S(=O)(=O)C(C)C)c3cc[nH]c3n2)nc1 | kinase still bound, per cent of control (BMPR1A (human)): 100%; kinase still bound, per cent of control (CDKL2 (human)): 100%; kinase still bound, per cent of control (CSNK1D (human)): 100%; kinase still bound, per cent of control (PLK3 (human)): 100%; kinase still bound, per cent of control (PRKAA1 (human)): 4.6%; kinase still bound, per cent of control (RPS6KA6 KD2 (human)): 100%; kinase still bound, per cent of control (SGK110 (human)): 7.4%; kinase still bound, per cent of control (SRMS (human)): 100%; kinase still bound, per cent of control (SRPK3 (human)): 12%; kinase still bound, per cent of control (STK17B (human)): 33%; kinase still bound, per cent of control (STK33 (human)): 1.4%; kinase still bound, per cent of control (SYK (human)): 2.6%; kinase still bound, per cent of control (TGFBR2 (human)): 100%; kinase still bound, per cent of control (TTK (human)): 4.6%; kinase still bound, per cent of control [1]: 0.95%
2 | 100 | 100 | 100 | 100 | 100 | 100 | 100 | 100 | 100 | 100 | 100 | 100 | 100 | 100 | 100 | 100 | 100 | 100 | 100 | 100 | CCN(CC)CCCCNc1ncc2cc(-c3cc(OC)cc(OC)c3)c(NC(=O)NC(C)(C)C)nc2n1 | kinase still bound, per cent of control (CSNK1D (human)): 100%; kinase still bound, per cent of control (PLK3 (human)): 100%; kinase still bound, per cent of control (PRKAA1 (human)): 100%; kinase still bound, per cent of control (RPS6KA6 KD2 (human)): 100%; kinase still bound, per cent of control (SRMS (human)): 100%; kinase still bound, per cent of control (STK17B (human)): 100%; kinase still bound, per cent of control (STK33 (human)): 100%; kinase still bound, per cent of control (SYK (human)): 100%; kinase still bound, per cent of control (TGFBR2 (human)): 100%; kinase still bound, per cent of control (TTK (human)): 100%
3 | 100 | 100 | 100 | 100 | 100 | 100 | 100 | 100 | 2.2 | 6 | 0.65 | 100 | 100 | 100 | 100 | 100 | 100 | 2.2 | 100 | 100 | C=CC(=O)Nc1ccc(CN(C(=O)Nc2c(Cl)c(OC)cc(OC)c2Cl)c2cc(Nc3ccc(N4CCN(C)CC4)cc3)ncn2)cc1 | kinase still bound, per cent of control (BMPR1A (human)): 100%; kinase still bound, per cent of control (CDKL2 (human)): 0.35%; kinase still bound, per cent of control (CSNK1D (human)): 100%; kinase still bound, per cent of control (PLK3 (human)): 100%; kinase still bound, per cent of control (PRKAA1 (human)): 100%; kinase still bound, per cent of control (RPS6KA6 KD2 (human)): 100%; kinase still bound, per cent of control (SGK110 (human)): 100%; kinase still bound, per cent of control (SRMS (human)): 100%; kinase still bound, per cent of control (SRPK3 (human)): 100%; kinase still bound, per cent of control (STK17B (human)): 100%; kinase still bound, per cent of control (STK33 (human)): 31%; kinase still bound, per cent of control (SYK (human)): 100%; kinase still bound, per cent of control (TGFBR2 (human)): 100%; kinase still bound, per cent of control (TTK (human)): 100%; kinase still bound, per cent of control [1]: 100%

Row | SMILES | kinase still bound, per cent of control (ACVR2B (human)) [%] | kinase still bound, per cent of control (AURKB (human)) [%] | kinase still bound, per cent of control (CHEK1 (human)) [%] | kinase still bound, per cent of control (CIT (human)) [%] | kinase still bound, per cent of control (CSNK2A1 (human)) [%] | kinase still bound, per cent of control (CaMK1 (human)) [%] | kinase still bound, per cent of control (DCLK2 (human)) [%] | kinase still bound, per cent of control (EPHB2 (human)) [%] | kinase still bound, per cent of control (ERBB4 (human)) [%] | kinase still bound, per cent of control (FLT3 (human)) [%] | kinase still bound, per cent of control (FRK (human)) [%] | kinase still bound, per cent of control (LATS1 (human)) [%] | kinase still bound, per cent of control (LATS2 (human)) [%] | kinase still bound, per cent of control (MAP3K5 (human)) [%] | kinase still bound, per cent of control (MAP4K4 (human)) [%] | kinase still bound, per cent of control (MAPKAPK5 (human)) [%] | kinase still bound, per cent of control (MYLK (human)) [%] | kinase still bound, per cent of control (PDGFRA (human)) [%] | kinase still bound, per cent of control (PIM2 (human)) [%] | kinase still bound, per cent of control (PKN2 (human)) [%] | further results
4 | Cc1n[nH]c2ccc(-c3cncc(OC[C@@H](N)Cc4c[nH]c5ccccc45)c3)cc12 | 100 | 100 | 100 | 0.2 | 17 | 33 | 100 | 100 | 100 | 4.5 | 100 | 3.8 | 0 | 100 | 2.2 | 100 | 0.1 | 100 | 1.2 | 2.4 | kinase still bound, per cent of control (BMPR1A (human)): 100%; kinase still bound, per cent of control (CDKL2 (human)): 5.2%; kinase still bound, per cent of control (PLK3 (human)): 100%; kinase still bound, per cent of control (PRKAA1 (human)): 100%; kinase still bound, per cent of control (RPS6KA6 KD2 (human)): 100%; kinase still bound, per cent of control (SGK110 (human)): 100%; kinase still bound, per cent of control (SRMS (human)): 100%; kinase still bound, per cent of control (SRPK3 (human)): 0.95%; kinase still bound, per cent of control (STK17B (human)): 20%; kinase still bound, per cent of control (STK33 (human)): 2.6%; kinase still bound, per cent of control (SYK (human)): 100%; kinase still bound, per cent of control (TGFBR2 (human)): 100%; kinase still bound, per cent of control (TTK (human)): 100%; kinase still bound, per cent of control [1]: 100%
